Experimental data taken from PMC9510668 (Frontiers in Pharmacology, 2022).
≈ marks a conversion by molar mass, not a printed value. Read-outs that look alike come from different tables or passages of the source.

Tests used:
[1] = cited from earlier work
CYP3A4 = settings: ref Food and Drug Administration, 2009; Yamada et al., 2020; cited from earlier work
[2] = Equilibrium solubility in pH buffers and biorelevant media; assay type: physicochemical
Method: After incubation of 2 h, 1 ml aliquot of each sample was withdrawn from the tube. The samples were filtered using a 0.22 μm filter, the first 0.8 ml was discarded, and the remaining 0.2 ml was analyzed by the HPLC. The specific experiments containing different conditions are as follows: • i) Solubility testing in simulated fasted and fed media
Specifically, solubility media were prepared using different phosphate buffers. Media pH was adjusted to the required value (Table 1, target value) using KOH or H3PO4, which were equal to the pH value of gastrointestinal tract compartment in a fasted and fed state in humans, respectively. • ii) Biorelevant solubility

CYP3D6 = settings: ref Food and Drug Administration, 2009; Yamada et al., 2020; cited from earlier work
[3] = 400 mg twice daily for 21 consecutive days, Day 22, ref Hurwitz et al., 2009
[4] = 400 mg whole tablet, ref Heath et al., 2012
[5] = 600 mg OD for 21 consecutive days, Day 1, ref Hurwitz et al., 2009
[6] = 600 mg OD for 21 consecutive days, Day 22, ref Hurwitz et al., 2009
[7] = 800 mg OD for 21 consecutive days, Day 1, ref Hurwitz et al., 2009
[8] = 800 mg OD for 21 consecutive days, Day 22, ref Hurwitz et al., 2009
[9] = 1000 mg OD for 21 consecutive days, Day 1, ref Hurwitz et al., 2009
[10] = 1000 mg OD for 21 consecutive days, Day 22, ref Hurwitz et al., 2009
[11] = 1400 mg OD for 21 consecutive days, Day 1, ref Hurwitz et al., 2009
[12] = 1400 mg OD for 21 consecutive days, Day 22, ref Hurwitz et al., 2009
[13] = 2000 mg OD for 21 consecutive days, Day 1, ref Hurwitz et al., 2009
[14] = 2000 mg OD for 21 consecutive days, Day 22, ref Hurwitz et al., 2009

For `Cc1ccc(Nc2nccc(N(C)c3ccc4c(C)n(C)nc4c3)n2)cc1S(N)(=O)=O` [PAZ, pazopanib], the “Ctrough, Observation” value [1, 3] is listed as 28100 ng/mL, the “Tmax, Observation” value [1, 3] is listed as 3.1 h and the “AUC0-72, Observation” value [1, 4] is listed as 410.3 (NC) μg h mL^−1. The “C24, Observation” value [1, 4] was 7.6 (NC) μg mL^−1, the “Cmax, Observation” value [1, 4] was 12.4 (NC) μg mL^−1 and the “Tmax, Observation” value [1, 4] was 3.8 h. For the same molecule, the “AUC0-24, Observation” value [1, 5] was 157.6 µg·h/mL, the “Cmax, Observation” value [1, 5] was 11.2 µg/mL and the “Ctrough, Observation” value [1, 5] was 4700 ng/mL. The “Tmax, Observation” value [1, 5] was 3.0 h, the “AUC504-528, Observation” value [1, 6] was 333.7 µg·h/mL and the “Cmax, Observation” value [1, 6] was 18.2 µg/mL. For the same molecule, the “Ctrough, Observation” value [1, 6] was 11000 ng/mL, the “Tmax, Observation” value [1, 6] was 6.0 h and the “AUC0-24, Observation” value [1, 7] was 275.1 µg·h/mL. For the same molecule, the “Cmax, Observation” value [1, 7] was 19.4 µg/mL, the “Ctrough, Observation” value [1, 7] was 9400 ng/mL and the “Tmax, Observation” value [1, 7] was 3.5 h. For the same molecule, the “AUC504-528, Observation” value [1, 8] was 743.3 µg·h/mL, the “Cmax, Observation” value [1, 8] was 45.1 µg/mL and the “Ctrough, Observation” value [1, 8] was 24000 ng/mL. The “Tmax, Observation” value [1, 8] was 2.0 h, the “AUC0-24, Observation” value [1, 9] was 400.0 µg·h/mL and the “Cmax, Observation” value [1, 9] was 36.1 µg/mL. The “Ctrough, Observation” value [1, 9] was 12200 ng/mL, the “Tmax, Observation” value [1, 9] was 2.0 h and the “AUC504-528, Observation” value [1, 10] was 796.1 µg·h/mL. The “Cmax, Observation” value [1, 10] was 53.2 µg/mL, the “Ctrough, Observation” value [1, 10] was 28800 ng/mL and the “Tmax, Observation” value [1, 10] was 4.5 h. The “AUC0-24, Observation” value [1, 11] was 291.6 µg·h/mL, the “Cmax, Observation” value [1, 11] was 20.8 µg/mL and the “Ctrough, Observation” value [1, 11] was 8200 ng/mL. The “Tmax, Observation” value [1, 11] was 3.0 h, the “AUC504-528, Observation” value [1, 12] was 536.2 µg·h/mL and the “Cmax, Observation” value [1, 12] was 32.7 µg/mL. The “Ctrough, Observation” value [1, 12] was 16600 ng/mL, the “Tmax, Observation” value [1, 12] was 2.0 h and the “AUC0-24, Observation” value [1, 13] was 681.2 µg·h/mL. The “Cmax, Observation” value [1, 13] was 44.5 µg/mL, the “Ctrough, Observation” value [1, 13] was 12200 ng/mL and the “Tmax, Observation” value [1, 13] was 4.0 h. For the same molecule, the “AUC504-528, Observation” value [1, 14] was 860.3 µg·h/mL, the “Cmax, Observation” value [1, 14] was 52.7 µg/mL and the “Ctrough, Observation” value [1, 14] was 28800 ng/mL. The “Tmax, Observation” value [1, 14] was 3.0 h, the “Slope of AUC vs dose, clinically determined value” ([1]; ref Food and Drug Administration, 2009) was 0.46 and the “Inhibitor of CYP3A4” value (CYP3A4) was “weak inhibitor”. It also gave a solubility at 2 h ([2]; 37 °C, pH 1.3, fassgf or other biorelevant, thermodynamic from solid, FaSSGF-PH1.3, read-out: Solubility (mean ± SD) at fasted state) of 436.1 ± 1 µg/mL (≈ 997 µM), a solubility at 2 h ([2]; 37 °C, pH 4.5, fassgf or other biorelevant, thermodynamic from solid, FEDGAS-PH4.5, read-out: Solubility (mean ± SD) at fed state) of 147 ± 1.9 µg/mL (≈ 336 µM) and a solubility at 2 h ([2]; 37 °C, pH 5.8, thermodynamic from solid, FeSSIF-V2-PH5.8, read-out: Solubility (mean ± SD) at fed state) of 6.5 ± 1.3 µg/mL (≈ 14.9 µM). For the same molecule, the solubility at 2 h ([2]; FEGGAS medium, 37 °C, fassgf or other biorelevant, thermodynamic from solid, fed state, used for food simulation, read-out: Mean value of the three solubility in the FEGGAS medium) was 167 µg/mL (≈ 381 µM), the “Solubility (mean ± SD) at fed state” value ([2]; PH7.0) was “N (Not detected (below the detection limit))” and the “Solubility (mean ± SD) at fed state” value ([2]; PH7.5) was “N (Not detected (below the detection limit))”. It also gave a solubility at 2 h ([2]; pH 3, FEDGAS-PH3.0, read-out: Solubility (mean ± SD) at fed state) of 322.7 ± 2.6 µg/mL (≈ 738 µM), a solubility at 2 h ([2]; pH 4.78, FaSSGF-PH4.78 (elevated gastric pH after esomeprazole), read-out: Solubility (mean ± SD) at fasted state) of 46.1 ± 3.4 µg/mL (≈ 105 µM) and a solubility at 2 h ([2]; pH 4.9, FEDGAS-PH4.9, read-out: Solubility (mean ± SD) at fed state) of 40 ± 0.7 µg/mL (≈ 91.4 µM). The solubility at 2 h ([2]; pH 6.5, FaSSIF-V2-PH6.5, read-out: Solubility (mean ± SD) at fasted state) was 0.63 ± 0.18 µg/mL (≈ 1.44 µM), the Solubility ([2]; pH ≥ 7.0) was “cannot even be detected” and the solubility at 2 h ([2]; phosphate buffer, 37 °C, pH 3, aqueous buffer, thermodynamic from solid, PH3.0, read-out: Solubility (mean ± SD) at fasted state) was 391 ± 4.6 µg/mL (≈ 895 µM). For the same molecule, the solubility at 2 h ([2]; phosphate buffer, 37 °C, pH 4.5, aqueous buffer, thermodynamic from solid, PH4.5, read-out: Solubility (mean ± SD) at fasted state) was 68.3 ± 3.3 µg/mL (≈ 156 µM), the solubility at 2 h ([2]; phosphate buffer, 37 °C, pH 5, aqueous buffer, thermodynamic from solid, PH5.0, read-out: Solubility (mean ± SD) at fasted state) was 24.2 ± 2.3 µg/mL (≈ 55.3 µM) and the solubility at 2 h ([2]; phosphate buffer, 37 °C, pH 6, aqueous buffer, thermodynamic from solid, PH6.0, read-out: Solubility (mean ± SD) at fasted state) was 7.6 ± 0.6 µg/mL (≈ 17.4 µM). For the same molecule, the solubility at 2 h ([2]; phosphate buffer, 37 °C, pH 7, aqueous buffer, thermodynamic from solid, PH7.0, read-out: Solubility (mean ± SD) at fasted state) was < 0.27 µg/mL, the solubility at 2 h ([2]; phosphate buffer, 37 °C, pH 7.5, aqueous buffer, thermodynamic from solid, PH7.5, read-out: Solubility (mean ± SD) at fasted state) was < 0.27 µg/mL and the solubility at 2 h ([2]; phosphate buffer, pH 2, PH2.0, read-out: Solubility (mean ± SD) at fasted state) was 263.9 ± 1.1 µg/mL (≈ 603 µM). For the same molecule, the “Inhibitor of CYP3D6” value (CYP3D6) was “weak inhibitor”.
